Source: article PMC9927457 (Microbiology Spectrum, 2023)

Columns and labels:
[1] = molecular target: CYP2D6 (Homo sapiens, UniProt P10635); test: biochemical
Method: (§1) Table S4. Inhibition of cytochrome P450s.
(§2) Compounds were tested for inhibition of P450s using the enzyme substrate pairs and conditions noted. IC50s (µM) were calculated. Control P450 inhibitors were included for each isoform. […]
(§3) 1200 HPLC and a CTC PAL chilled autosampler, all controlled by MassHunter software (Agilent).
(§4) After separation on a C18 reverse phase HPLC column (Agilent Zorbax StableBond 3.5µm, 2.1 x 30 mm) using an acetonitrile -water gradient system, peaks were analyzed by mass spectrometry (MS) using ESI ionization in MRM mode.
(§5) Serial dilutions of a 10 mM stock solution were prepared in acetonitrile:DMSO (9:1). The final DMSO concentration was < 0.2%. Compounds were incubated with human liver microsomes in the presence of 2 mM NADPH in 100 mM potassium phosphate (pH 7.4) containing 5 mM magnesium chloride and a probe substrate, in a 200 µl assay final volume in duplicate. The probe substrate concentrations including bupropion (CYP2B6), amodiaquine (CYP2C8), tolbutamide (CYP2C9), mephenytoin (CYP2C19), dextromethorphan (CYP2D6) and midazolam/testosterone […]
(§6) After incubation at 37 °C, reactions were terminated by addition of methanol containing internal standard (propranolol) for analytical quantification. The quenched samples were kept on ice for 10 min and centrifuged at 4 °C for 10 min. The supernatant was removed and the probe substrate metabolite was analyzed by LC-MS/MS (Agilent Technologies Triple Quad LC/MS). A decrease in the formation of the metabolite compared to vehicle control

[2] = test system: RAW 264.7 macrophages; test: Cytotoxicity against infected macrophages; type: cell-based, murine; conditions: Mus musculus; infected RAW264:7 cells, 72 h; read-out: IC50 Macrophage
Method: Murine RAW 264.7 macrophages (ATCC TIB-71) were infected with M. tuberculosis DsRed (DREAM8) ([29]) as described at a multiplicity of infection of 1 for 24 h, washed, harvested, and dispensed into 384-well plates ([30]). Infected macrophages were exposed to compounds for 72 h; cell nuclei were stained with SYBR green I. Plates were imaged with an ImageXpress Micro High Content Screening System (Molecular Devices) using a ×4 objective and FITC and Texas Red channels. MetaXpress was used to determine the integrated intensity of bacteria or macrophages. […] Isoniazid and staurosporine controls (maximum inhibition) and dose responses were included on every plate.

[3] = molecular target: T1, CYP2B6 (Homo sapiens, UniProt P20813); test: Cytochrome P450 inhibition
T1 sequence (P20813 1-491): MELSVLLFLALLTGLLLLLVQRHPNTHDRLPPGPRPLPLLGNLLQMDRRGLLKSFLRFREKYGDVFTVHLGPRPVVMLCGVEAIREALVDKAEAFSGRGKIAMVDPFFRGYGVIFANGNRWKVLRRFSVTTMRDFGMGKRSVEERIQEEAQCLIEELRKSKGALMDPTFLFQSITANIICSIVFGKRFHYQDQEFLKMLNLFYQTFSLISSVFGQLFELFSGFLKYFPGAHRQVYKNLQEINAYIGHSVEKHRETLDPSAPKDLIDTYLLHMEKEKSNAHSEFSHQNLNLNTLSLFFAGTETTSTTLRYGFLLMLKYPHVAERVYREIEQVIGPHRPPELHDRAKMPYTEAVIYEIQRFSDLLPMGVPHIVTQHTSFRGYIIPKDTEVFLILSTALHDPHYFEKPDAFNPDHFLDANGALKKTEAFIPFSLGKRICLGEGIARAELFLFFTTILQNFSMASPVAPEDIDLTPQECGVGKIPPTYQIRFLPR
Method: as §1
(§7) Compounds were tested for inhibition of P450s using the enzyme substrate pairs and conditions noted. IC50s (µM) were calculated. Control P450 inhibitors were included for each isoform.
(§8) For each compound, the analytical method was developed as follows. Analyte signal was optimized for each compound by ESI positive or negative ionization mode. An MS2 scan or an SIM scan was used to optimize fragmenter voltage and a product ion analysis was used to identify the best fragment for analysis. The collision energy was optimized using a product ion or MRM scan. An ionization ranking was assigned indicating the compound’s ease of ionization. Samples […]
as §3, §4
(§9) (1 picture or pasted object on this page, not shown here)
as §5, §6

[4] = test system: Caco-2 cells; test: Caco-2 permeability; conditions: for recovery: human, 10 μM
Method: (§10) Permeability was measured across Caco-2 cells cultured in a Millipore 96-well Caco-2 plate. For apical to basolateral (A→B) permeability, 10 μM compound was added to the apical (A) side and amount of permeation was determined on the basolateral (B) side; for basolateral to apical (B→A) permeability, the compound was added to the B side and the amount of permeation was determine on the A side. Time points were taken at 2 h.
(§11) Table S2. Permeability. Permeability was measured using Caco-2 cells after 1 and 2 hours incubation with compound. (A→B) is Apical to Basolateral; (B→A) is Basolateral to Apical. Data is expressed as permeability (10-6 cm s-1). dQ/dt is rate of permeation, C0 is initial concentration […]
(§12) Article Duration direction value replicate replicate mean recovery

[5] = in vitro; conditions: human; for Papp A→B at 2 h, 10 µM / Papp B→A at 2 h, 10 µM / efflux ratio at 2 h, 10 µM: Caco-2
Method: as §10, §11, §12

[6] = molecular target: CYP3A4 (Homo sapiens, UniProt P08684); test: Cytochrome P450 inhibition; type: in vitro ADME; conditions: liver microsomes
CYP3A4, sequence (P08684 2-503): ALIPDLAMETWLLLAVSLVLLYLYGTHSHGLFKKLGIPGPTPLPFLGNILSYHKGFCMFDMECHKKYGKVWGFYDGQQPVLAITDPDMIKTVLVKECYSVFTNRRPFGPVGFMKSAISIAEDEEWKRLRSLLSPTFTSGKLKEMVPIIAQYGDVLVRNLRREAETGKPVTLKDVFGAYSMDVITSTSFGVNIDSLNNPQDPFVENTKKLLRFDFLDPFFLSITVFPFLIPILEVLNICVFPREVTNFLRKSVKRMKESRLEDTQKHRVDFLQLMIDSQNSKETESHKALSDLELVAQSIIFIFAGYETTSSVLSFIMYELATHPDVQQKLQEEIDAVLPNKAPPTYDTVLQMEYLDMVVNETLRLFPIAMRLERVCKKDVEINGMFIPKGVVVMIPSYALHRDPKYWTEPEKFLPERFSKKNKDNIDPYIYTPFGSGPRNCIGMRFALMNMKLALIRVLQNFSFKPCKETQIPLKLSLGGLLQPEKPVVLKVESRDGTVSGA
Method: as §1, §7, §8, §3, §4, §9, §5, §6

[7] = molecular target: CYP2C9 (Homo sapiens, UniProt P11712); test: biochemical
CYP2C9, sequence (P11712 whole entry): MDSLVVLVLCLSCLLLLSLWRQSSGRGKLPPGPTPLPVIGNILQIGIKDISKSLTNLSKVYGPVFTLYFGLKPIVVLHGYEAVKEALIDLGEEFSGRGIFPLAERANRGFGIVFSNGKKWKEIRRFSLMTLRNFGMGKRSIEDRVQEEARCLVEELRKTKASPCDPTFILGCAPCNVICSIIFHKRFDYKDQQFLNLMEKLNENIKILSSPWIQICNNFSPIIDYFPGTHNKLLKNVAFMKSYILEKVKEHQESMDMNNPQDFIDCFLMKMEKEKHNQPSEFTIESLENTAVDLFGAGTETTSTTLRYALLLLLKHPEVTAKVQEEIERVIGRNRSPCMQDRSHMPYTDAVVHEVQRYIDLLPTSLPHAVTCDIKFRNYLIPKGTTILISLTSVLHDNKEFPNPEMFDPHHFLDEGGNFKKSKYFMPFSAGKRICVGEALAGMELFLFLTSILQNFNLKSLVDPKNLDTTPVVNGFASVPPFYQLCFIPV
Method: as §1, §2, §5, §6

[8] = test system: HepG2 cells; test: HepG2 cytotoxicity; type: cell-based, human; conditions: Homo sapiens, HepG2, 72 h, 3 days exposure, CellTiter-Glo
Method: HepG2 cells were used to measure eukaryotic cytotoxicity. Viability of HepG2 was measured using CellTiter-Glo reagent (Promega) after 3 days of exposure to compounds. […] Staurosporine controls (maximum inhibition) and a staurosporine dose response were included on every plate.

[9] = Plasma protein binding (Rapid Equilibrium Dialysis); type: in vitro ADME, human; conditions: human; for fraction unbound at 4 h, 5 µM: plasma
Method: Molecule fraction fraction Post-Assay
Table S5. Plasma protein binding
Protein binding was measured in human plasma using Rapid Equilibrium Dialysis (RED) devices (Pierce) according to the manufacturers’ instructions; 5 µM compounds in plasma were dialysed against PBS for 4 h at 37C. Compounds were detected by LC-MS/MS in plasma and PBS

[10] = Mean plasma fraction Unbound Fuplasma

CYP2D6, sequence (P10635 whole entry): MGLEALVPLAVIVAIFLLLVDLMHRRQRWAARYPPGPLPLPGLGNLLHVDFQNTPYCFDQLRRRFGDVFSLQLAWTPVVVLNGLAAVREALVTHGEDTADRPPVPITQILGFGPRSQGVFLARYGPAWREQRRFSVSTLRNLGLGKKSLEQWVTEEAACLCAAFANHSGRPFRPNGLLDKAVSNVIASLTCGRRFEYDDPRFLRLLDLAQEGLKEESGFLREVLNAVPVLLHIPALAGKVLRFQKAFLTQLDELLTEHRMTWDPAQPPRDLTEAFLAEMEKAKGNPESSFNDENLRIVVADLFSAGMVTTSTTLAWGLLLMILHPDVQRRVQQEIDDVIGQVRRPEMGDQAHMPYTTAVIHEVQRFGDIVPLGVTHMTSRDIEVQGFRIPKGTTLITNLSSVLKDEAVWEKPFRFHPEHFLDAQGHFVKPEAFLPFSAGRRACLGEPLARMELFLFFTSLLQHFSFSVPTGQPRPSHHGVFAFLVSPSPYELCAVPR

Row | SMILES | IC50 [1] [µM] | IC50 [2] [µM] | IC50 [3] [µM] | dQ/dt (rate of permeation), mean ([4]; A→B, assay duration 1 hr) | dQ/dt (rate of permeation), mean ([4]; A→B, assay duration 2 hr) | dQ/dt (rate of permeation), mean ([4]; B→A, assay duration 1 hr) | dQ/dt (rate of permeation), mean ([4]; B→A, assay duration 2 hr) | Papp A→B at 2 h, 10 µM [5] [×10⁻⁶ cm/s] | Papp B→A at 2 h, 10 µM [5] [×10⁻⁶ cm/s] | efflux ratio at 2 h, 10 µM [5] | IC50 at 10 min ([6]; pH 7.4, probe midazolam) [µM] | IC50 at 10 min ([6]; pH 7.4, probe testosterone) [µM] | IC50 [7] [µM] | IC50 [8] [µM] | recovery at 4 h, 5 µM [9] [%] | fraction unbound at 4 h, 5 µM ([9]; Mean plasma fraction Bound) | fraction unbound at 4 h, 5 µM [9, 10] | further results
1 | CCCCNC(=S)Nc1nc2ccccc2s1 [Molecule 1, 1-(benzo[d]thiazol-2-yl)-3-butylthiourea] | > 20 | > 100 | > 20 | 9.7E-06 | 2.1E-05 | 2.4E-05 | 3.8E-05 | 1.4 | 2.5 | 1.7 | > 20 | > 20 | > 20 | 26 ± 12 | 84.3 | 0.001 | 0.001 | –
2 | CCCCNC(=S)Nc1nc(C)co1 [Molecule 21, 1-butyl-3-(4-methyloxazol-2-yl)thiourea] | > 20 | 6 ± 1 | > 20 | 4.2E-04 | 3.0E-04 | 3.8E-04 | 2.8E-04 | 21 | 19 | 0.89 | > 20 | 11.9 | > 20 | 42 ± 12 | 83.9 | 0.037 | 0.037 | recovery ([4]; Caco-2, 1 h): 77%; recovery ([4]; Caco-2, 2 h): 67%; recovery at 1 h, 10 μM ([5]; Caco-2, recovery): 59%; recovery at 2 h, 10 μM ([5]; Caco-2, recovery): 56%
